Tested on: C57BL/6 mice
Assay: Hair growing effect on mice (topical application to shaved dorsal region)
Assay type: in vivo
Settings: 1% topically every day, male C57BL/6 mice
Experimental: In the present example, the hair growing effect of keratin microparticles on mice was investigated. The experiment was approved by Institutional Animal Care and Use Committee, University of Tsukuba (No. 17-060), and the procedure was carried out in conformity with the “Guiding principles for the care and use of animals in the field of physiological sciences” approved by the board of Physiological Society of Japan.
Six-week-old male C57BL/6 mice (Charles River Japan Inc.) were kept individually in a cage. acclimated for 1 week, and then randomly assigned to experiment groups (each group n=5) of a 1% Minoxidil treated group, a 1% keratin treated group, a 1% keratin microparticles treated group, and a milli-Q water treated group (control group). The mice were anesthetized with Isoflurane (Wako Pure Chemical Industries, Ltd.) and then telogen hair at the dorsal region of the mice was shaved using a hair clipper to induce the growth phase. […]
In the end of treatment period, the mice were slaughtered by cervical dislocation. […] Using ImageJ processing program (National Institutes of Health, Bethesda, USA), the hair regrowth at the treated area was measured.

## Nc1cc(N2CCCCC2)nc(N)[n+]1[O-] [Minoxidil]
  time of hair regrowth phenotype: ~10 day after application
